Measurements from patent US5567684A, “Synthetic ganglioside derivatives” (The Regents of The University of California, priority 1994, dated 1996).
“Also recorded” adds a separate entry of the source. Like-named read-outs stand apart in the source and are kept apart here.

Key:
[1] = tested on: allogeneic immune response in popliteal lymph node; experiment: In vivo assay of immunosuppressive activity: allogeneic immune response in draining popliteal lymph node after footpad injection; design: species or system C3H mice; details: for lymph node mass, net increase / lymph node mass, stimulated / lymph node mass, unstimulated: day 4; for lymph node mass, stimulated: left footpad; for lymph node mass, unstimulated: right footpad
Excerpt: In vivo Assay of Immunosuppressive Activity: Footpad injection of the synthetic ganglioside derivatives being studied and of the stimulant of the cellular immune response (allogeneic cells), is subsequently followed by harvest of the popliteal node and assessment of the node size, cell number, specific proliferation response and generation of specific cytotoxicity.
Mice: C3H (H-2^K) and BALB/c (H-2^d) mice are obtained at 6 weeks of age and used in these experiments at 7-12 weeks of age. The animals are murine virus free strains purchased from Charles River, Wilmington, Mass.
Preparation of stimulator cells: Spleens are removed aseptically and immediately placed in murine complete media [RPMI 1640 w/o L-glutamine (Whittaker Bioproducts, Walkersville, Md.) supplemented with 10% FCS; 1% of MEM non-essential amino acids (Cellgro), sodium pyruvate, L-glutamine, Penicillin 50 U/ml/Streptomycin 50 μg/ml and 10 mM Hepes Buffer (Whittaker Bioproducts)] then transferred to a 60×10 mm petri dish. A sterile single cell suspension is prepared by gently pressing the spleen onto a cell dissociation sieve (Sigma). Mononuclear cells are isolated by Ficoll-Hypaque density gradient separation, followed by lysis of erythrocytes (ACK lysing buffer pH 7.4). The cells are washed and their viability determined by trypan blue exclusion. Allogeneic (BALB/c) splenocytes are diluted to the appropriate concentration in saline and are injected into the footpad of C3H mice together with the synthetic ganglioside derivatives to be tested.
Preparation of synthetic ganglioside derivatives: Synthetic ganglioside derivatives are aliquoted in HPLC-grade chloroform:methanol (1:1), and dried in glass microvials. The synthetic ganglioside derivatives are then resuspended for injection in 0.9% NaCl, sonicated for 2 min in a Branson water bath sonicator.
Injections: Spleen cells or tumor cells and the synthetic ganglioside derivatives being studied are injected into the left hind footpad in a total volume of 30 μl.
Isolation of popliteal lymph nodes: Primed animals are killed by cervical dislocation on day 4, the popliteal lymph node draining the left and right footpads are removed aseptically, trimmed free of excess fat, weighted and placed on ice in tubes containing tissue culture medium. The nodes are then teased with a flat end of a 3 ml syringe to obtain a single cell suspension, which is washed in complete murine media containing 0.1% 2mercaptoethanol (Gibco, New York). The cells are then quantified and their viability determined by trypan blue exclusion. The cell concentration is adjusted to 2×10^6 cells/ml.
Cell cultures: 2×10^5 lymph node cells in 100 μl are cultured for 18 hours in complete medium with 0.5 μC ^3 H-thymidine incorporation quantified by β-scintillation counting as a measure of in vivo lymphocyte activation (50).
In this model, the immune response in a local microenvironment directed against allogeneic cells is assessed. Allogeneic (C3H mice) spleen cells were injected into the footpad of BALB/c mice and the draining popliteal lymph nodes were removed from the sacrificed mice four days later.

[2] = tested on: normal human peripheral blood mononuclear leukocytes; experiment: cells; format: cell-based
[3] = Table 2, mean ± SD of five mice, dialkyl GM3 11 μg coinjected, CSA 24 mg/kg/day i.p. × 4 days
[4] = Homo sapiens, Leukocyte, 2.5 μM, read-out: Inhibition
[5] = Homo sapiens, Leukocyte, 5.0 μM, read-out: Inhibition
[6] = Table 4, mean ± SD of five mice, ganglioside 10 nmol coinjected, CSA 24 mg/kg/dose i.p. × 4 doses
[7] = Homo sapiens, Leukocyte, read-out: inhibition of human lymphoproliferation
[8] = Table 1, mean ± SD of five mice, GM3 n=1 10 nmol coinjected, cyclosporin A 24 mg/kg/dose i.p. × 4 doses

Question: With `CCCCCCCCCCCCCCC(CCCCCCCCCCCCCC)COC1OC(CO)C(OC2OC(CO)C(O)C(OC3(C(=O)O)CC(O)C(NC(C)=O)C(C(O)C(O)CO)O3)C2O)C(O)C1O` [dialkyl GM3, 2-(Tetradecylhexadecyl) O-(5-acetamido-3,5-dideoxy-D-glycero-D-galacto-2-nonulopyranosylonic acid)-(2→3)-O-β-D-galactopyranosyl-(1→4)-β-D-glucopyranoside] as the molecule, how does the “[^3 H]thymidine uptake (spontaneous lymphoproliferation)” value [1] read?
Answer: Its value is 317 ± 45 cpm.

Question: And the “[^3 H]thymidine uptake relative to control group” value ([1]; 2×10^5 cells)?
Answer: The value was 20%.

Question: What about the “[^3 H]thymidine uptake (spontaneous lymphoproliferation)” value ([1]; Table 2, 0.5 × 10^5 cells, mean ± SEM of three cultures) of the same molecule?
Answer: Its value is 107 ± 29 cpm.

Question: And the “[^3 H]thymidine uptake (spontaneous lymphoproliferation)” value ([1]; Table 2, 1 × 10^5 cells, mean ± SEM of three cultures)?
Answer: The value was 152 ± 15 cpm.

Question: And the “lymph node mass, net increase” value ([1]; Table 2, dialkyl GM3 11 μg coinjected, CSA 24 mg/kg/day i.p. × 4 days)?
Answer: The value was 0.45 mg.

Question: And the “lymph node mass, stimulated” value [1, 3]?
Answer: The value was 1.86 ± 0.25 mg.

Question: What about the “lymph node mass, unstimulated” value [1, 3] of the same molecule?
Answer: The value was 1.41 ± 0.17 mg.

Question: What about the “lymphocytes (total mononuclear leukocytes recovered from five stimulated popliteal lymph nodes)” value ([1]; Table 2, dialkyl GM3 11 μg, CSA 24 mg/kg/day i.p. × 4 days) of the same molecule?
Answer: Its value is 0.83 ×10^7.

Question: And the “suppression of the immune response / proliferation, in words” value ([1]; Table 2, three cell densities for proliferation)?
Answer: The value was “marked suppression of the immune response; also recorded: markedly suppresses the proliferation”.

Question: And the “lymphocyte number as fraction of control group” value ([1]; control group 2.3×10^7 cells)?
Answer: Its value is ≤ 1/3.

Question: And the “net increase of lymph node mass” value ([1]; dialkyl GM3 10 nmol or 11 μg/mouse coinjected, cyclosporin A systemic)?
Answer: Its value is 0.45 mg.

Question: And the “lymphocyte (mononuclear-leukocyte) number” value ([1]; five nodes from five mice)?
Answer: The value was 0.8 ×10^7.

Question: What about the “immunosuppressive activity in vitro, in words” value [2] of the same molecule?
Answer: The value was “marked immunosuppressive activity; also recorded: higher degree of inhibition of dialkyl GM3 than that of GM3 is readily observed”.

Question: And the “potency relative to GM3 d18:1-C18:0” value [2]?
Answer: The value was “four-fold”.

Question: And the “[^3 H] Thymidine Uptake” value ([2]; 2.5 μM)?
Answer: Its value is 0.7 CPM × 10^-3.

Question: And the “[^3 H] Thymidine Uptake” value ([2]; 5.0 μM)?
Answer: Its value is 0.3 CPM × 10^-3.

Question: What about the IC50 ([2]; Homo sapiens, Leukocyte, 0-10 μM, read-out: ID50, inhibition of human lymphoproliferation) of the same molecule?
Answer: Its IC50 is 200 nM.

Question: And the inhibition at 2.5 µM [2, 4]?
Answer: The inhibition at 2.5 µM was 93%.

Question: And the inhibition at 5 µM [2, 5]?
Answer: Its inhibition at 5 µM is 97%.

Question: And the IC90 ([2]; Homo sapiens, Leukocyte, read-out: concentration at which 90% inhibition was observed, 0-20 μM)?
Answer: Its IC90 is less than 7000 nM.

Question: `CCCCCCCCCCCCCC=CC(O)C(COC1(C(=O)O)CC(O)C(NC(C)=O)C(C(O)C(O)CO)O1)NC(=O)CCCCCCCCCCCCCCCCC` [αGM5, (2S,3R,4E)-1-O-(5-acetamido-3,5-dideoxy-D-glycero-α- and β-D-galacto-f2-nonulopyranosylonicacid)-2-octadecanamido-4-octadecene-1,3-diol] was tested. Which “lymph node mass, net increase” value ([1]; Table 4, ganglioside 10 nmol coinjected, CSA 24 mg/kg/dose i.p. × 4 doses) did it give?
Answer: Its value is 0.58 mg.

Question: And the “lymph node mass, stimulated” value [1, 6]?
Answer: Its value is 1.40 ± 0.22 mg.

Question: And the “lymph node mass, unstimulated” value [1, 6]?
Answer: The value was 0.82 ± 0.26 mg.

Question: And the “in vivo immunosuppression, in words” value ([1]; αGM5, compared to systemically administered cyclosporin A, Table 4)?
Answer: The value was “highly immunosuppressive in vivo”.

Question: And the “reduction in cellular immune response (increase in lymph mass caused by in vivo allostimulation)” value ([1]; αGM5, Table 4)?
Answer: The value was 2/3.

Question: What about the “immunosuppressive activity in vitro, in words” value [2] of the same molecule?
Answer: The value was “potent immunosuppressive agents”.

Question: And the “[^3 H] Thymidine Uptake” value ([2]; 2.5 μM)?
Answer: The value was 0.1 CPM × 10^-3.

Question: And the “[^3 H] Thymidine Uptake” value ([2]; 5.0 μM)?
Answer: Its value is 0.1 CPM × 10^-3.

Question: And the inhibition at 2.5 µM [2, 4]?
Answer: The inhibition at 2.5 µM was 99%.

Question: And the inhibition at 5 µM [2, 5]?
Answer: Its inhibition at 5 µM is 99%.

Question: And the IC90 ([2]; Homo sapiens, Leukocyte, read-out: ID90)?
Answer: The IC90 was roughly 2500 nM.

Question: And the inhibition at 0.0025 µM [2, 7]?
Answer: Its inhibition at 0.0025 µM is 99%.

Question: And the inhibition at 0.005 µM [2, 7]?
Answer: Its inhibition at 0.005 µM is 99%.

Question: How did the “[^3 H] Thymidine Uptake” value ([2]; 2.5 μM) turn out when `CCCCCCCCCCCCCC=CC(O)C(COC1OC(CO)C(OC2OC(CO)C(O)C(OC3(C(=O)O)CC(O)C(NC(C)=O)C(C(O)C(O)CO)O3)C2O)C(O)C1O)NC(=O)CCCCCCCCCCCCC` (stereo not drawn) [GM3 d18:1-C14:0] was run?
Answer: Its value is 4.6 CPM × 10^-3.

Question: And the “[^3 H] Thymidine Uptake” value ([2]; 5.0 μM)?
Answer: Its value is 0.8 CPM × 10^-3.

Question: And the inhibition at 2.5 µM [2, 4]?
Answer: The inhibition at 2.5 µM was 53%.

Question: What about the inhibition at 5 µM [2, 5] of the same molecule?
Answer: The inhibition at 5 µM was 92%.

Question: `CCCCCCCCCCCCCC=CC(O)C(COC1(C(=O)O)CC(O)C(NC(C)=O)C(C(O)C(O)CO)O1)NC(=O)CCCCCCCCCCCCCCCCC` [βGM5, (2S,3R,4E)-1-O-(5-acetamido-3,5-dideoxy-D-glycero-α- and β-D-galacto-f2-nonulopyranosylonicacid)-2-octadecanamido-4-octadecene-1,3-diol] was tested. Which “immunosuppressive activity in vitro, in words” value [2] did it give?
Answer: Its value is “potent immunosuppressive agents”.

Question: What about the “[^3 H] Thymidine Uptake” value ([2]; 2.5 μM) of the same molecule?
Answer: The value was 1.4 CPM × 10^-3.

Question: And the “[^3 H] Thymidine Uptake” value ([2]; 5.0 μM)?
Answer: The value was 0.3 CPM × 10^-3.

Question: And the inhibition at 2.5 µM [2, 7]?
Answer: The inhibition at 2.5 µM was 86%.

Question: What about the inhibition at 5 µM [2, 7] of the same molecule?
Answer: The inhibition at 5 µM was 97%.

Question: How did the “[^3 H]thymidine uptake (spontaneous lymphoproliferation)” value ([1]; Table 1, 2 × 10^5 cells/well, mean ± SD of three cultures) turn out when `CCCCCCCCCCCCCC=CC(O)C(COC1OC(CO)C(OC2OC(CO)C(O)C(OC3(C(=O)O)CC(O)C(NC(C)=O)C(C(O)C(O)CO)O3)C2O)C(O)C1O)NC(C)=O` (stereo not drawn) [GM3 n=1] was run?
Answer: The value was 329 ± 18 cpm.

Question: What about the “lymphocytes (total mononuclear leukocytes recovered from five stimulated popliteal lymph nodes)” value ([1]; Table 1, GM3 n=1 10 nmol, cyclosporin A 24 mg/kg/dose i.p. × 4 doses) of the same molecule?
Answer: Its value is 1.03 × 10^7.

Question: And the “lymph node mass, stimulated” value [1, 8]?
Answer: Its value is 1.84 ± 0.30 mg.

Question: And the “lymph node mass, net increase” value [1, 8]?
Answer: The value was 0.56 ± 0.36 mg.

Question: What about the “lymph node mass, unstimulated” value [1, 8] of the same molecule?
Answer: Its value is 1.29 ± 0.24 mg.

Question: And the “P, difference in net increase of popliteal nodes between control and GM3 n = 1 treated groups” value ([1]; Table 1 footnote)?
Answer: The value was less than 0.01.

Question: What about the “in vivo immunosuppressive activity compared with mixed human brain gangliosides” value ([1]; mouse, in vivo) of the same molecule?
Answer: Its value is “much more active than the mixed brain gangliosides”.

Question: What about the “in vivo immunosuppressive activity compared with cyclosporin A” value ([1]; single dose of GM3 n=1, Table 1) of the same molecule?
Answer: The value was “almost as immunosuppressive as systemically administered cyclosporin A”.

Question: What about the “immunosuppressive activity compared with lyso GM3 (n=-1)” value [2] of the same molecule?
Answer: Its value is “higher degree of immunosuppressive activity”.

Question: What about the “immunosuppressive activity compared with n = 17 or 23” value [2] of the same molecule?
Answer: Its value is “greater immunosuppressive activity than glycosphingolipids wherein n is 17 or 23”.

Question: What about the “relative immunosuppressive activity (inhibition of human lymphoproliferative response)” value ([2]; 5 μM) of the same molecule?
Answer: The value was “highest immunosuppressive activity”.

Question: And the IC50 ([2]; Homo sapiens, Leukocyte, read-out: ID50, inhibition of the human lymphoproliferative response)?
Answer: Its IC50 is 0.2 nM.
